According to ChEMBL document CHEMBL1135834, “First non-ATP competitive glycogen synthase kinase 3 beta (GSK-3beta) inhibitors: thiadiazolidinones (TDZD) as potential drugs for the treatment of Alzheimer's disease” (J Med Chem, 2002):

Legend:
[1] = biological target: Casein kinase II (Homo sapiens) (UniProt P67870+P68400+P19784); experiment: Specific activity against Casein kinase II (CK II); type: protein-complex assay; conditions: Bos taurus
[2] = biological target: Cyclin-dependent kinase 1/cyclin B (Homo sapiens, UniProt P06493); experiment: Inhibition of Cyclin dependent kinase 1-cyclinB; type: protein-complex assay
[3] = biological target: Cyclin-dependent kinase 1/cyclin B (Homo sapiens) (UniProt P06493+P14635+Q8WWL7+O95067); experiment: Specific activity against Cyclin dependent kinase 1-cyclin B; type: protein-complex assay
[4] = Inhibition of catalytic subunit of protein kinase A (PKA) from bovine heart; parameters: species or system Bos taurus
[5] = species: Bos taurus; experiment: Specific activity against Protein kinase A (PKA) from bovine heart

Cn1sc(=O)n(Cc2ccccc2)c1=O
Specific activity (uM Pi/min/mg protein) [1]: 0.4 | IC50 [2]: > 100 µM | Specific activity (nM Pi min-1 (mg of protein)-1) [3]: 0.4 | IC50 [4]: > 100 µM | Specific activity (nM Pi min-1 (mg of protein)-1) [5]: 4
